Source: ChEMBL document CHEMBL1629708, “Discovery of dihydrothieno- and dihydrofuropyrimidines as potent pan Akt inhibitors” (Bioorg Med Chem Lett, 2010)

Experiments:
[1] = biological target: T1, RAC-alpha serine/threonine-protein kinase (Homo sapiens, UniProt P31749); assay: Inhibition of Akt1
[2] = Inhibition of PKA
[3] = biological target: T1, RAC-alpha serine/threonine-protein kinase; assay: Inhibition of Akt in human LNCaP cell assessed as inhibition of PRAS40 phosphorylation; assay type: cell-based
[4] = biological target: Ribosomal protein S6 kinase beta-1 (Homo sapiens) (UniProt P23443); assay: Inhibition of p70S6K at 1 uM
[5] = biological target: Protein kinase C eta type (Homo sapiens) (UniProt P24723); assay: Inhibition of PKCeta at 1 uM
[6] = Inhibition of PKA at 1 uM
[7] = Clearance in rat at 5 mg/kg, iv; assay type: ADME, organism-based; set-up: dose 5 mg/kg, route intravenous; settings: in vivo
[8] = Bioavailability in rat at 50 mg/kg, po; assay type: ADME, organism-based; settings: in vivo
[9] = Plasma concentration in rat at 50 mg/kg, po; assay type: ADME, organism-based; set-up: dose 50 mg/kg, route oral
[10] = Plasma protein binding in rat; assay type: ADME, cell-free; settings: read-out: PPB (converted)
Plasma [11] = assay: Increase in plasma drug level in nude mouse xenografted with human U87 cells at 50 to 100 mg/kg, po after 1 hr; assay type: ADME, organism-based, U-87MG ATCC; set-up: dose 50-100 mg/kg, route oral; settings: in vivo
Plasma [12] = assay: Increase in plasma drug level in nude mouse xenografted with human U87 cells at 200 mg/kg, po after 1 hr; assay type: ADME, organism-based, U-87MG ATCC; set-up: dose 200 mg/kg, route oral; settings: in vivo
[13] = Inhibition of PRAS40 phosphorylation in human U87 cells xenografted in mouse at 50 mg/kg, po after 1 hr; assay type: functional, U-87MG ATCC; settings: U-87 MG
[14] = Inhibition of PRAS40 phosphorylation in human U87 cells xenografted in mouse at 50 mg/kg, po after 4 hr; assay type: functional, U-87MG ATCC; settings: U-87 MG
[15] = Inhibition of PRAS40 phosphorylation in human U87 cells xenografted in mouse at 200 mg/kg, po after 4 hrs; assay type: functional, U-87MG ATCC; settings: U-87 MG
[16] = Inhibition of PRAS40 phosphorylation in human U87 cells xenografted in mouse at 200 mg/kg, po after 12 hrs; assay type: functional, U-87MG ATCC; settings: U-87 MG
PC-3 [17] = assay: Antitumor activity against human PC3 prostate tumor cell xenografted in nude mouse assessed as inhibition of tumor growth at 25 mg/kg, po qd for 14 days; assay type: functional; set-up: scale not given: the % may be the effect or the level left
PC-3 [18] = assay: Antitumor activity against human PC3 prostate tumor cell xenografted in nude mouse assessed as inhibition of tumor growth at 50 mg/kg, po qd for 14 days; assay type: functional; set-up: scale not given: the % may be the effect or the level left
PC-3 [19] = assay: Antitumor activity against human PC3 prostate tumor cell xenografted in nude mouse assessed as inhibition of tumor growth at 100 mg/kg, po qd for 14 days; assay type: functional; settings: PC-3, 336 h
PC-3 [20] = assay: Antitumor activity against human PC3 prostate tumor cell xenografted in nude mouse assessed as inhibition of tumor growth at 200 mg/kg, po qd for 14 days; assay type: functional; set-up: scale not given: the % may be the effect or the level left
Plasma [21] = assay: Increase in plasma drug level in nude mouse xenografted with human U87 cells at 50 to 100 mg/kg, po after 4 hrs; assay type: ADME, organism-based, U-87MG ATCC; set-up: dose 50-100 mg/kg, route oral; settings: in vivo
Plasma [22] = assay: Increase in plasma drug level in nude mouse xenografted with human U87 cells at 200 mg/kg, po after 4 hrs; assay type: ADME, organism-based, U-87MG ATCC; set-up: dose 200 mg/kg, route oral; settings: in vivo
[23] = Ratio of IC50 for Akt1 to IC50 for Akt2
[24] = Ratio of IC50 for Akt1 to IC50 for Akt3

T1 sequence (P31749 whole entry): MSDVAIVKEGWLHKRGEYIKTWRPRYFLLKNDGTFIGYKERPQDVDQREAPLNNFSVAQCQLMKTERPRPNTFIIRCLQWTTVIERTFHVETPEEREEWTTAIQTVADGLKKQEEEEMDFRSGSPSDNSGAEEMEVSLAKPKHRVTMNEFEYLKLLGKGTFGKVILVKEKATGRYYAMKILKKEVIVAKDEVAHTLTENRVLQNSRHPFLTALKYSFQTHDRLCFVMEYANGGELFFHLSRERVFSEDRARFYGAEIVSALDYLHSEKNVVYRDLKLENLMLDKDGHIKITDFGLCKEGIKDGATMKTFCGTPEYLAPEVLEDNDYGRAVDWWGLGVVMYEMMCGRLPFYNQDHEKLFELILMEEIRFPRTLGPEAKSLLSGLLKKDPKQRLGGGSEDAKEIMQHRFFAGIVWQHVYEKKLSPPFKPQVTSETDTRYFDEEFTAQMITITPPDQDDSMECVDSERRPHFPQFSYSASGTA
Ribosomal protein S6 kinase beta-1 (Homo sapiens), sequence (P23443 whole entry, looked up): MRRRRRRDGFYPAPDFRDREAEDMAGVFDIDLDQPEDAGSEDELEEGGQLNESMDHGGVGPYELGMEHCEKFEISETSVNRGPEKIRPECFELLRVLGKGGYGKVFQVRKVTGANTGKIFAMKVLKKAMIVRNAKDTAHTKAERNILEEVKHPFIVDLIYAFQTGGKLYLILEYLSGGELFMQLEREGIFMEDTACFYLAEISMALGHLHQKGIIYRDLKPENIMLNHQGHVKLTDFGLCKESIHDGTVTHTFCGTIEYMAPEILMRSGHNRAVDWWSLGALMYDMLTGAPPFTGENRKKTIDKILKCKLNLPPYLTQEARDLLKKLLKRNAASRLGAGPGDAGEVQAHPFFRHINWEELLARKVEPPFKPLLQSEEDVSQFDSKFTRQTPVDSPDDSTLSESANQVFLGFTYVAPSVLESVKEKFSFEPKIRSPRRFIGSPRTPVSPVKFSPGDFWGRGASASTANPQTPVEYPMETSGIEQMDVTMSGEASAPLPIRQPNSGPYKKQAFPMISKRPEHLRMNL
Protein kinase C eta type (Homo sapiens), sequence (P24723 whole entry): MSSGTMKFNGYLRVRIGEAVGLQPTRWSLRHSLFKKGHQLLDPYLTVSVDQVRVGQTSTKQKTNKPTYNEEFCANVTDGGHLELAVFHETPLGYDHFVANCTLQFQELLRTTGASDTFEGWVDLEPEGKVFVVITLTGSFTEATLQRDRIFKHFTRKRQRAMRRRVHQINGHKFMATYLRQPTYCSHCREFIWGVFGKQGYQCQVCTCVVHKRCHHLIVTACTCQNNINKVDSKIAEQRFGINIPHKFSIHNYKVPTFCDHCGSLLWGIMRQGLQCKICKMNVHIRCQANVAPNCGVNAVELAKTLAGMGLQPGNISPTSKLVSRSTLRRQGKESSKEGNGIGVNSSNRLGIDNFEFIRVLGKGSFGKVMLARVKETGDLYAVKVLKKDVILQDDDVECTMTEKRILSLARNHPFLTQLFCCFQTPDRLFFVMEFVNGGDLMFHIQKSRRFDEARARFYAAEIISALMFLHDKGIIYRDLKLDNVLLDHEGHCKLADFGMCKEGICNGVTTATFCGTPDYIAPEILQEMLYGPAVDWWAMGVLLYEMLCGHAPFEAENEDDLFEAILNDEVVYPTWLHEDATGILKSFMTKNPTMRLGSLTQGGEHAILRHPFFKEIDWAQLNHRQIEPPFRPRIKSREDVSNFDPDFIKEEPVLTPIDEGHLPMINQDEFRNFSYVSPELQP

Structure (SMILES) | IC50 [1] | IC50 [2] | IC50 [3] | further results
N[C@H](Cc1ccc(Cl)cc1)C(=O)N1CCN(c2ncnc3c2CS(=O)(=O)C3)CC1 | 52 nM | 1300 nM | 21000 nM | –
C[C@@H]1OCc2ncnc(N3CCN(C(=O)[C@H](N)Cc4ccc(Cl)cc4)CC3)c21 | 7 nM | 61 nM | 615 nM | –
CC(C)NC[C@H](Cc1ccc(Cl)cc1)C(=O)N1CCN(c2ncnc3c2[C@H](C)OC3)CC1 | 3 nM | 52 nM | 125 nM | inhibition [4]: > 50%; inhibition [5]: > 50%; inhibition [6]: > 50%
CC(C)NC[C@@H](Cc1ccc(Cl)cc1)C(=O)N1CCN(c2ncnc3c2[C@H](C)SC3)CC1 | 127 nM | 5620 nM | – | –
CC(C)NCC(Cc1ccc(Cl)cc1)C(=O)N1CCN(c2ncnc3c2[C@H](C)SC3)CC1 (stereo partly specified) | 3 nM | 80 nM | 159 nM | inhibition [4]: > 50%; inhibition [5]: > 50%; inhibition [6]: > 50%
C[C@@H]1SCc2ncnc(N3CCN(C(=O)C(Cc4ccc(Cl)cc4)CN4CCCC4)CC3)c21 (stereo partly specified) | 3 nM | 75 nM | 178 nM | –
CC(C)NC[C@H](Cc1ccc(Cl)cc1)C(=O)N1CCN(c2ncnc3c2[C@H](C)SC3)CC1 | 1 nM | 35 nM | 137 nM | clearance [7]: 94 mL/min/kg; bioavailability [8]: > 100%; AUC [9]: 56200 ng·h/mL; fraction unbound [10]: 0.3; Activity (Plasma [11]): Active; Activity (Plasma [12]): Active; inhibition in vivo at 50 mg/kg [13]: 85%; inhibition in vivo at 50 mg/kg [14]: 60%; inhibition in vivo at 200 mg/kg [15]: 83%; inhibition in vivo at 200 mg/kg [16]: 65%; Activity (PC-3 [17]): 15%; Activity (PC-3 [18]): 42%; inhibition in vivo at 100 mg/kg (PC-3 [19]): 61%; Activity (PC-3 [20]): 84%; Activity (Plasma [21]): Active; Activity (Plasma [22]): Active
CC(C)NCC(C(=O)N1CCN(c2ncnc3c2C(C)SC3)CC1)c1ccc(Cl)cc1 (stereo unspecified) | – | – | – | Ratio IC50 [23]: 5
Cc1c[nH]c2ncnc(N3CCN(C(=O)[C@H](N)Cc4ccc(F)cc4)CC3)c12 | – | 6 nM | 160 nM | –
Cc1ccc(CC(CNC(C)C)C(=O)N2CCN(c3ncnc4c3[C@H](C)OC4)CC2)cc1 (stereo partly specified) | 16 nM | 315 nM | 995 nM | –
C[C@@H]1SCc2ncnc(N3CCN(C(=O)C(Cc4ccc(Cl)c(F)c4)CC4(N)CC4)CC3)c21 (stereo partly specified) | 3 nM | 30 nM | 250 nM | –
CC(C)NCC(Cc1ccc(F)c(F)c1)C(=O)N1CCN(c2ncnc3c2[C@H](C)SC3)CC1 (stereo partly specified) | 10 nM | 285 nM | 759 nM | –
CC(C)NCC(C(=O)N1CCN(c2ncnc3c2C(C)OC3)CC1)c1ccc(Cl)cc1 (stereo unspecified) | – | – | – | Ratio IC50 [24]: 3
C[C@@H]1OCc2ncnc(N3CCN(C(=O)C(Cc4ccc(Cl)c(F)c4)CC(C)(C)N)CC3)c21 (stereo partly specified) | 18 nM | 91 nM | 592 nM | –
CC(C)NCC(Cc1ccc(Cl)c(F)c1)C(=O)N1CCN(c2ncnc3c2[C@H](C)OC3)CC1 (stereo partly specified) | 6 nM | 88 nM | 315 nM | –
Cc1ccc(CC(CNC(C)C)C(=O)N2CCN(c3ncnc4c3[C@H](C)SC4)CC2)cc1 (stereo partly specified) | 3 nM | 101 nM | 216 nM | –
N[C@H](Cc1ccc(Cl)cc1)C(=O)N1CCN(c2ncnc3c2CSC3)CC1 | 22 nM | 223 nM | 3850 nM | –
CC(C)NCC(Cc1ccc(Cl)c(F)c1)C(=O)N1CCN(c2ncnc3c2[C@H](C)SC3)CC1 (stereo partly specified) | 2 nM | 30 nM | 92 nM | –

More lines, main results first:

IC50 [1] | IC50 [2] | IC50 [3] | Structure (SMILES) | further results
1 nM | 13 nM | 184 nM | C[C@@H]1SCc2ncnc(N3CCN(C(=O)[C@H](N)Cc4ccc(Cl)cc4)CC3)c21 | –
4 nM | 30 nM | 602 nM | C[C@@H]1SCc2ncnc(N3CCN(C(=O)[C@H](N)Cc4ccc(F)c(F)c4)CC3)c21 | –
11 nM | 104 nM | 1590 nM | C[C@@H]1SCc2ncnc(N3CCN(C(=O)[C@H](N)Cc4ccc(F)cc4)CC3)c21 | –
2 nM | 8 nM | 176 nM | C[C@@H]1SCc2ncnc(N3CCN(C(=O)[C@H](N)Cc4ccc(Cl)c(F)c4)CC3)c21 | –
4 nM | 31 nM | 310 nM | CC1SCc2ncnc(N3CCN(C(=O)[C@H](N)Cc4ccc(Cl)cc4)CC3)c21 (stereo partly specified) | –
260 nM | 1710 nM | 18500 nM | C[C@H]1SCc2ncnc(N3CCN(C(=O)[C@H](N)Cc4ccc(Cl)cc4)CC3)c21 | –
42 nM | 308 nM | 2470 nM | C[C@@H]1SCc2ncnc(N3CCN(C(=O)C(Cc4ccc(Cl)cc4)C4(N)CC4)CC3)c21 (stereo partly specified) | –
6 nM | 73 nM | 438 nM | C[C@@H]1SCc2ncnc(N3CCN(C(=O)C(Cc4ccc(Cl)cc4)CC(C)(C)N)CC3)c21 (stereo partly specified) | –
7 nM | 63 nM | 587 nM | C[C@@H]1SCc2ncnc(N3CCN(C(=O)C(Cc4ccc(Cl)c(F)c4)CC(C)(C)N)CC3)c21 (stereo partly specified) | –
– | – | 3630 nM | C[C@@H]1SCc2ncnc(N3CCN(C(=O)[C@H](N)Cc4c[nH]c5ccccc45)CC3)c21 | –
7 nM | 52 nM | 1200 nM | CCC1SCc2ncnc(N3CCN(C(=O)[C@H](N)Cc4ccc(Cl)cc4)CC3)c21 (stereo partly specified) | –
